For 19 compounds, IC50 results are on record in patent publication US9085555B2, “Complement pathway modulators and uses thereof” (priority 2011, dated 2015).

This experiment concerns the target Factor D (Homo sapiens (Human), UniProt P00746). Kind of experiment: biochemical. Type of experiment: biochemical. As to conditions: read-out: IC50.

Sequence of Factor D (P00746 26-253): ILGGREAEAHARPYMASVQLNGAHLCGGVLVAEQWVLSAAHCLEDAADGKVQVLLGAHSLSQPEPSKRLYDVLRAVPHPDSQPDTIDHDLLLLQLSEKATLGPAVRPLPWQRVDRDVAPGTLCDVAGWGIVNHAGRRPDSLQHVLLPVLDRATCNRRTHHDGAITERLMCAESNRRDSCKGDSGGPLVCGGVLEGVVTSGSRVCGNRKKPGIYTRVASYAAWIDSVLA

As usually defined, the IC50 is the concentration that gives 50% inhibition. Consider `CC(=O)c1cn(CC(=O)N2[C@@H]3C[C@@H]3C[C@H]2C(=O)NCc2cccc(Cl)c2F)c2cccnc12` [Example 553, (1R,3S,5R)-2-[2-(3-Acetyl-pyrrolo[3,2-b]pyridin-1-yl)-acetyl]-2-aza-bicyclo[3.1.0] hexane-3-carboxylic acid 3-chloro-2-fluoro-benzylamide], for which the 50% inhibitory concentration (IC50) turned out to be 5300 nM.
`C[C@@]1(F)C[C@@H](C(=O)NCc2cccc(Cl)c2F)N(C(=O)Cn2cc(C(=O)C(F)(F)F)c3ccccc32)C1` [Example 554, (2S,4R)-4-Fluoro-4-methyl-1-{2-[3-(2,2,2-trifluoro-acetyl)-indol-1-yl]-acetyl}-pyrrolidine-2-carboxylic acid 3-chloro-2-fluoro-benzylamide]: the IC50 worked out at 44 nM.
With `CC(=O)c1cn(CC(=O)N2C[C@@H](N(C)C)[C@H](F)[C@H]2C(=O)NCc2cccc(Cl)c2F)c2ccccc12` [Example 555, (2R,3S,4R)-1-[2-(3-Acetyl-indol-1-yl)-acetyl]-4-dimethylamino-3-fluoro-pyrrolidine-2-carboxylic acid 3-chloro-2-fluoro-benzylamide], the IC50 is 2270 nM.
Regarding `O=C(CO)c1cn(CC(=O)N2[C@@H]3C[C@@H]3C[C@H]2C(=O)NCc2cccc(Cl)c2F)c2ccccc12` [Example 556, (1R,3S,5R)-2-{2-[3-(2-Hydroxy-acetyl)-indol-1-yl]-acetyl}-2-aza-bicyclo[3.1.0] hexane-3-carboxylic acid 3-chloro-2-fluoro-benzylamide], the IC50 is 25 nM.
Regarding `CC(=O)c1cn(CC(=O)N2[C@@H]3C[C@@H]3C[C@H]2C(=O)N[C@H](CCO)c2cccc(Cl)c2F)c2ncccc12` [Example 557, (1R,3S,5R)-2-[2-(3-Acetyl-pyrrolo[2,3-b]pyridin-1-yl)-acetyl]-2-aza-bicyclo[3.1.0] hexane-3-carboxylic acid [(R)-1-(3-chloro-2-fluoro-phenyl)-3-hydroxy-propyl]-amide], the IC50 was found to be 134 nM.
As to `CC(=O)c1cn(CC(=O)N2[C@@H]3C[C@@H]3C[C@H]2C(=O)Nc2cccc(OC(F)(F)F)c2)c2ncccc12` [Example 558, (1R,3S,5R)-2-[2-(3-Acetyl-pyrrolo[2,3-b]pyridin-1-yl)-acetyl]-2-aza-bicyclo[3.1.0] hexane-3-carboxylic acid (3-trifluoromethoxy-phenyl)-amide], the IC50 amounted to 1990 nM.
Regarding `COc1ccc2c(c1)c(C=O)cn2CC(=O)N1C[C@H](F)C[C@H]1C(=O)NCc1cccc(Cl)c1F` [Example 560, (2S,4R)-4-Fluoro-1-[2-(3-formyl-5-methoxy-indol-1-yl)-acetyl]-pyrrolidine-2-carboxylic acid 3-chloro-2-fluoro-benzylamide], the IC50 came to 141 nM.
As for `O=C(NCc1cccc(Cl)c1F)[C@@H]1C[C@@H](F)CN1C(=O)Cn1cc(C(=O)C(F)(F)F)c2ccccc21` [Example 561, (2S,4R)-4-Fluoro-1-{2-[3-(2,2,2-trifluoro-acetyl)-indol-1-yl]-acetyl}-pyrrolidine-2-carboxylic acid 3-chloro-2-fluoro-benzylamide], the IC50 was 14 nM.
Turning to `CC(=O)c1cn(CC(=O)N2[C@@H]3C[C@@H]3C[C@H]2C(=O)Nc2cccc(OC(F)(F)F)c2F)c2ncccc12` [Example 562, (1R,3S,5R)-2-[2-(3-Acetyl-pyrrolo[2,3-b]pyridin-1-yl)-acetyl]-2-aza-bicyclo[3.1.0]hexane-3-carboxylic acid (2-fluoro-3-trifluoromethoxy-phenyl)-amide], the IC50 is 804 nM.
Then `O=C(CO)c1cn(CC(=O)N2C[C@H](F)C[C@H]2C(=O)NCc2cccc(Cl)c2F)c2ccccc12` [Example 563, (2S,4R)-4-Fluoro-1-{2-[3-(2-hydroxy-acetyl)-indol-1-yl]-acetyl}-pyrrolidine-2-carboxylic acid 3-chloro-2-fluoro-benzylamide], with 42 nM; and `O=C(CO)c1cn(CC(=O)N2C[C@H](F)C[C@H]2C(=O)NCc2cccc(Br)c2F)c2ccccc12` [Example 564, (2S,4R)-4-Fluoro-1-{2-[3-(2-hydroxy-acetyl)-indol-1-yl]-acetyl}-pyrrolidine-2-carboxylic acid 3-bromo-2-fluoro-benzylamide], with 13 nM.
For the compound `COCC(=O)c1cn(CC(=O)N2C[C@H](F)C[C@H]2C(=O)NCc2cccc(Cl)c2F)c2ccccc12` [Example 565, (2S,4R)-4-Fluoro-1-{2-[3-(2-methoxy-acetyl)-indol-1-yl]-acetyl}-pyrrolidine-2-carboxylic acid 3-chloro-2-fluoro-benzylamide], the IC50 is 369 nM.
Take `NC(=O)c1cn(CC(=O)N2C[C@@](F)(CO)C[C@H]2C(=O)NCc2cccc(Cl)c2F)c2ccccc12` [Example 566, 1-{2-[(2S,4R)-2-(3-Chloro-2-fluoro-benzylcarbamoyl)-4-fluoro-4-hydroxymethyl-pyrrolidin-1-yl]-2-oxo-ethyl}-1H-indole-3-carboxylic acid amide]: the half-maximal inhibitory concentration (IC50) came out at 436 nM.
Turning to `NC(=O)c1cn(CC(=O)N2CCS[C@H]2C(=O)NCc2cccc(Cl)c2F)c2ccccc12` [Example 567, 1-{2-[(S)-2-(3-Chloro-2-fluoro-benzylcarbamoyl)-thiazolidin-3-yl]-2-oxo-ethyl}-1H-indole-3-carboxylic acid amide], the IC50 is 293 nM.
Take `COC[C@@H](NC(=O)[C@@H]1C[C@H]2C[C@H]2N1C(=O)Cn1cc(C(C)=O)c2ccccc21)c1cccc(Cl)c1F` [Example 568, (1R,3S,5R)-2-[2-(3-Acetyl-indol-1-yl)-acetyl]-2-aza-bicyclo[3.1.0]hexane-3-carboxylic acid [(S)-1-(3-chloro-2-fluoro-phenyl)-2-methoxy-ethyl]-amide]: the concentration for half-maximal inhibition (IC50) was 121 nM.
In the case of `CCO[C@H]1[C@@H](C(=O)NCc2cccc(Cl)c2F)N(C(=O)Cn2cc(C(C)=O)c3ccccc32)C[C@@H]1F` [Example 569, (2S,3S,4S)-1-[2-(3-Acetyl-indol-1-yl)-acetyl]-4-fluoro-3-ethoxy-pyrrolidine-2-carboxylic acid 3-chloro-2-fluoro-benzylamide] it was 13 nM.
`CO[C@H]1[C@@H](C(=O)N[C@H](C)c2cccc(Cl)c2F)N(C(=O)Cn2cc(C(C)=O)c3ccccc32)C[C@@H]1F` [Example 570, (2S,3S,4S)-1-[2-(3-Acetyl-indol-1-yl)-acetyl]-4-fluoro-3-methoxy-pyrrolidine-2-carboxylic acid [(R)-1-(3-chloro-2-fluoro-phenyl)-ethyl]-amide]: the IC50 was found to be 27 nM.
As for `CO[C@H]1[C@@H](C(=O)N[C@@H](C)c2cccc(Cl)c2F)N(C(=O)Cn2cc(C(C)=O)c3ccccc32)C[C@@H]1F` [Example 571, (2S,3S,4S)-1-[2-(3-Acetyl-indol-1-yl)-acetyl]-4-fluoro-3-methoxy-pyrrolidine-2-carboxylic acid [(S)-1-(3-chloro-2-fluoro-phenyl)-ethyl]-amide], the IC50 was determined as 99 nM.
As for `CO[C@H]1[C@@H](C(=O)NC2(c3cccc(Cl)c3)CC2)N(C(=O)Cn2cc(C(C)=O)c3ccccc32)C[C@@H]1F` [Example 572, (2S,3S,4S)-1-[2-(3-Acetyl-indol-1-yl)-acetyl]-4-fluoro-3-methoxy-pyrrolidine-2-carboxylic acid [1-(3-chloro-phenyl)-cyclopropyl]-amide], the IC50 came out at 284 nM.
